Experiments:
mice = test: In vivo glucose tolerance test (GTT); set-up: species or system mouse; conditions: male B6 mice, 16 h fast, 10 nmol/kg IP peptide, then 2 g/kg IP glucose; blood glucose 0-120 min; n = 8; one-way ANOVA, Dunnett's post-test
Procedure: Given the promising activation and stability data, we next tested our peptides in vivo using a standard glucose tolerance test (GTT). More specifically, following a 16h fast, mice were injected intraperitoneally (IP) with 10 nmol/kg peptide followed by 2 g/kg of glucose.
In Vivo GTT Test: Male B6 mice at 10−12 weeks of age were housed (8 mice/cage) at a constant RT of 24 °C on a normal day-light cycle and provided a standard diet ad libitum. After 1 week of acclimatization, B6 mice (n = 8 per treatment arm) were fasted for 16 h overnight, and the following morning baseline blood glucose levels were measured (OneTouch), followed by intraperitoneal (IP) injection of vehicle (saline) or the indicated peptide (10 nmol/kg). Thirty minutes later, the mice were treated with a bolus IP injection of glucose (2 g/kg, 20% aqueous solution), followed by serial blood glucose monitoring at 0, 15, 30, 60, and 120 min. Samples for the measurement of blood glucose were obtained from the saphenous vein and collected into heparinized capillary tubes. All animal experiments were approved by and performed in accordance with the guidelines and regulations set forth by the Institutional Animal Care and Use Committee of the Dana-Farber Cancer Institute.

[1] = Solubility of stock solution for CD spectroscopy; assay type: physicochemical; conditions: 5 mM stock in 10% acetonitrile
[2] = Human serum stability assay (RP-HPLC); conditions: 50% (v/v) human serum, 50 μM peptide, 37 °C, up to 48 h, n = 3
Procedure: Human Serum Stability Assay: Stock solutions of the peptides (10 mM in DMSO) and reconstituted normal human serum (Thermo Scientific) were pre-equilibrated to 37 °C for 15 minutes in separate tubes. For each replicate, peptides and serum were combined to a final concentration of 50 μM and 50% (v/v) respectively, final volume of 150 μL. The reaction tubes were then incubated at 37 °C with 300 rpm shaking in an Eppendorf ThermoMixer. At each time point, 20 μL of the reaction was taken from each replicate and diluted with four-fold excess of cold acetone. The serum proteins were allowed to precipitate for 15 minutes at -20 °C and were removed by centrifugation at 14,000 g, 4 °C for 10 minutes. The supernatant was transferred to a new tube, diluted with the same volume of water, and were stored at -20 °C until HPLC analysis. Chromatographic separations were performed on a C18 reversed phase analytical column (Higgins Analytical, 150x4.6 mm, 5 μm pore size) using a 30-50% B linear gradient over 30 minutes. Solvent A consisted of 0.1% (v/v) TFA in water, and solvent B contained 90% acetonitrile, 0.1% TFA in water.

[3] = clinically marketed as Forteo; cited from earlier work

## CCCCCCCCCCCCCCCCCCOCCOCCOCCOCCOCCC(=O)N[C@@H](CO)C(=O)NCCCC[C@H](NC(=O)[C@H](C)NC(=O)[C@H](C)NC(=O)[C@H](CCC(N)=O)NC(=O)CNC(=O)[C@H](CCC(=O)O)NC(=O)[C@H](CC(C)C)NC(=O)[C@H](Cc1ccc(O)cc1)NC(=O)[C@H](CO)NC(=O)[C@H](CO)NC(=O)[C@@H](NC(=O)[C@H](CC(=O)O)NC(=O)[C@H](CO)NC(=O)[C@@H](NC(=O)[C@H](Cc1ccccc1)NC(=O)[C@@H](NC(=O)CNC(=O)[C@H](CCC(=O)O)NC(=O)C(C)(C)NC(=O)[C@@H](N)Cc1c[nH]cn1)[C@@H](C)O)[C@@H](C)O)C(C)C)C(=O)N[C@@H](CCC(=O)O)C(=O)N[C@@H](Cc1ccccc1)C(=O)N[C@H](C(=O)N[C@@H](C)C(=O)N[C@@H](Cc1c[nH]c2ccccc12)C(=O)N[C@@H](CC(C)C)C(=O)N[C@H](C(=O)N[C@@H](CCCCN)C(=O)NCC(=O)N[C@@H](CCCNC(=N)N)C(=O)NCC(=O)O)C(C)C)[C@@H](C)CC [G1]
mice
  glycemic control in acute GTT (blood glucose AUC) compared to unmodified GLP-1: statistically significant glycemic control

## CC[C@H](C)[C@H](NC(=O)[C@H](Cc1ccccc1)NC(=O)[C@H](CCC(=O)O)NC(=O)[C@H](CCCCNC(=O)COCCOCCNC(=O)COCCOCCNC(=O)CC[C@H](NC(=O)CCCCCCCCCCCCCCCCC(=O)O)C(=O)O)NC(=O)[C@H](C)NC(=O)[C@H](C)NC(=O)[C@H](CCC(N)=O)NC(=O)CNC(=O)[C@H](CCC(=O)O)NC(=O)[C@H](CC(C)C)NC(=O)[C@H](Cc1ccc(O)cc1)NC(=O)[C@H](CO)NC(=O)[C@H](CO)NC(=O)[C@@H](NC(=O)[C@H](CC(=O)O)NC(=O)[C@H](CO)NC(=O)[C@@H](NC(=O)[C@H](Cc1ccccc1)NC(=O)[C@@H](NC(=O)CNC(=O)[C@H](CCC(=O)O)NC(=O)C(C)(C)NC(=O)[C@@H](N)Cc1cnc[nH]1)[C@@H](C)O)[C@@H](C)O)C(C)C)C(=O)N[C@@H](C)C(=O)N[C@@H](Cc1c[nH]c2ccccc12)C(=O)N[C@@H](CC(C)C)C(=O)N[C@H](C(=O)N[C@@H](CCCNC(=N)N)C(=O)NCC(=O)N[C@@H](CCCNC(=N)N)C(=O)NCC(=O)O)C(C)C [Semaglutide]
[1]
  solubility as stock: not soluble
[2]
  stability in human serum (in words): almost no sign of degradation up to 48 h

## PTH(1–34): clinically marketed by Eli Lilly as Forteo
[3]
  half-life in the blood: ~ 5 minutes
